Assay results published in US20240166693A1, “METHODS AND COMPOUNDS FOR MODULATING MYOTONIC DYSTROPY 1” (Design Therapeutics, Inc., priority 2020, published 2024).
Read-outs that look alike come from different tables or passages of the source.

Tested on: Myotonic Dystrophy 1 affected patient fibroblasts (Coriell GM04602; 1600 CTG repeats)
Assay: DM1 foci reduction assay (CAG10-Cy3 FISH, average foci per nucleus)
Assay type: cell-based
Settings: Homo sapiens, Fibroblast
In short: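 DM1 patient fibroblasts (GM04602, 1600 CTG) treated 48 h at 37 °C, 8-point 1:3 dilutions from 3 μM top dose; wild-type GM07492 as control. PFA-fixed, ethanol-permeabilized cells hybridized overnight with 5 nM CAG10-Cy3 probe, DAPI-counterstained, imaged at 20× in 4 fields; average foci per nucleus per well.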

[1] = 48 h, read-out: Foci Reduction in Fibroblast EC50, 48 h (nM)
[2] = DM1 fibroblasts, 48 h treatment, 8-point dose response, 3 μM top dose, read-out: Foci Reduction in Fibroblast EC50, 48 h

| Structure (SMILES) | EC50 [1] [nM] | EC50 [2] [nM] |
| --- | --- | --- |
| CCN(CC)CCCC[C@H](NC(=O)[C@H](CC(C)C)NC(=O)[C@H](C)NC(=O)[C@H](Cc1ccccc1)NC(=O)c1ccc(C(C)(C)C)cc1)C(=O)N[C@@H](CO)C(=O)NCCOCCOCCOCCOCCOCCNC(=O)CCNC(=O)c1nc(NC(=O)c2cc(NC(=O)CCNC(=O)c3nc(NC(=O)[C@@H](CCNC(=O)c4cc(NC(=O)c5nc(NC(=O)CCNC(=O)c6cc(NC(=O)c7nccn7C)cn6C)cn5C)cn4C)NC(C)=O)cn3C)cn2C)cn1C [Compound 102] | 100 to 500 | – |
| CN(C)[C@H]1CN(C2CCc3cccc(F)c32)C[C@@H]1c1ccc(N2CCN(S(=O)(=O)CCOCCOCCOCCOCCOCCNC(=O)CCNC(=O)c3nc(NC(=O)c4cc(NC(=O)CCNC(=O)c5nc(NC(=O)CCCNC(=O)c6cc(NC(=O)c7nc(NC(=O)CCNC(=O)c8cc(NC(=O)c9nccn9C)cn8C)cn7C)cn6C)cn5C)cn4C)cn3C)CC2)cc1 (some centres unmarked) [Compound 147] | – | > 500 |
| CCN(CC)CCCC[C@H](NC(=O)[C@H](CC(C)C)NC(=O)[C@H](C)NC(=O)[C@H](Cc1ccccc1)NC(=O)c1ccc(C(C)(C)C)cc1)C(=O)N[C@@H](CO)C(=O)NCCOCCOCCOCCOCCOCCNC(=O)c1nc(NC(=O)CCNC(=O)c2cc(NC(=O)c3nc(NC(=O)CCNC(=O)c4cc(NC(=O)c5nc(NC(=O)CCNC(=O)c6cccn6C)cn5C)cn4C)cn3C)cn2C)cn1C [Compound 10] | > 500 | – |
| CCN(CC)CCCC[C@H](NC(=O)[C@H](CC(C)C)NC(=O)[C@H](C)NC(=O)[C@H](Cc1ccccc1)NC(=O)c1ccc(C(C)(C)C)cc1)C(=O)N[C@@H](CO)C(=O)NCCOCCOCCOCCOCCOCC(=O)N[C@H](CCNC(=O)c1cc(NC(=O)c2nc(NC(=O)CCNC(=O)c3cc(NC(=O)c4nccn4C)cn3C)cn2C)cn1C)C(=O)Nc1cn(C)c(C(=O)Nc2cc(C(=O)NCCC(=O)Nc3cn(C)c(C(=O)Nc4cc(C(=O)NCCO)n(C)c4)n3)n(C)c2)n1 [Compound 134] | > 500 | – |
| CCN(CC)CCCC[C@H](NC(=O)[C@H](CC(C)C)NC(=O)[C@H](C)NC(=O)[C@H](Cc1ccccc1)NC(=O)c1ccc(C(C)(C)C)cc1)C(=O)N[C@@H](CO)C(=O)NCCOCCOCCOCCOCCNC(=O)CCNC(=O)c1nc(NC(=O)c2cc(NC(=O)CCNC(=O)c3nc(NC(=O)CCCNC(=O)c4cc(NC(=O)c5nc(NC(=O)CCNC(=O)c6cc(NC(=O)c7nccn7C)cn6C)cn5C)cn4C)cn3C)cn2C)cn1C [Compound 72] | < 100 | – |
| CC(C)c1cnn2c(NCc3ccc(OCCOCCOCCOCCOCCOCCNC(=O)c4cc(NC(=O)c5cc(NC(=O)c6nc(NC(=O)c7cc(NC(=O)[C@@H](N)CCNC(=O)c8nc(NC(=O)CCNC(=O)c9cc(NC(=O)c%10nccn%10C)cn9C)cn8C)cn7C)cn6C)cn5C)cn4C)cc3-n3cccn3)nc(OC3CCCNC3)nc12 (some centres unmarked) [Compound 122] | – | > 500 |
| CCN(CC)CCCC[C@H](NC(=O)[C@H](CC(C)C)NC(=O)[C@H](C)NC(=O)[C@H](Cc1ccccc1)NC(=O)c1ccc(C(C)(C)C)cc1)C(=O)N[C@@H](CO)C(=O)N1CCN(CCOCCOCCOCCOCCNC(=O)CCNC(=O)c2nc(NC(=O)c3cc(NC(=O)CCNC(=O)c4nc(NC(=O)CCCNC(=O)c5cc(NC(=O)c6nc(NC(=O)CCNC(=O)c7cc(NC(=O)c8nccn8C)cn7C)cn6C)cn5C)cn4C)cn3C)cn2C)CC1 [Compound 185] | 100 to 500 | – |
| COc1cccc(C(=O)N2CCN(C(=O)CN(CCOCCOCCOCCOCCOCCNC(=O)CCNC(=O)c3nc(NC(=O)c4cc(NC(=O)CCNC(=O)c5nc(NC(=O)CCCNC(=O)c6cc(NC(=O)c7nc(NC(=O)CCNC(=O)c8cc(NC(=O)c9nccn9C)cn8C)cn7C)cn6C)cn5C)cn4C)cn3C)c3cccc(C)c3)CC2)c1OC [Compound 142] | – | 100 to 500 |
| CC(C)C[C@H](NC(=O)[C@H](C)NC(=O)[C@H](Cc1ccccc1)NC(=O)c1ccc(C(C)(C)C)cc1)C(=O)N[C@@H](CCCCN(C)C1CC2CCC1C2)C(=O)N[C@@H](CO)C(=O)NCCOCCOCCNC(=O)c1cc(NC(=O)c2cc(NC(=O)c3nc(NC(=O)c4cc(NC(=O)[C@@H](N)CCNC(=O)c5nc(NC(=O)CCNC(=O)c6cc(NC(=O)c7nccn7C)cn6C)cn5C)cn4C)cn3C)cn2C)cn1C (some centres unmarked) [Compound 83] | > 500 | – |
| CCCCCCNc1nc(NC2CCN(CCOCCOCCOCCOCCOCCOCCOCCOCCOCCOCCNC(=O)CCNC(=O)c3nc(NC(=O)c4cc(NC(=O)CCNC(=O)c5nc(NC(=O)CCCNC(=O)c6cc(NC(=O)c7nc(NC(=O)CCNC(=O)c8cc(NC(=O)c9nccn9C)cn8C)cn7C)cn6C)cn5C)cn4C)cn3C)CC2)c2cc(OC)c(OC)cc2n1 [Compound 191] | – | > 500 |
| CCN(CC)CCCC[C@H](NC(=O)[C@H](CC(C)C)NC(=O)[C@H](C)NC(=O)[C@H](Cc1ccccc1)NC(=O)c1ccc(C(C)(C)C)cc1)C(=O)N[C@@H](CO)C(=O)NCCOCCOCCOCCOCCOCCNC(=O)c1cc(NC(=O)c2nc(NC(=O)[C@@H](CCNC(=O)c3cc(NC(=O)c4nc(NC(=O)CCNC(=O)c5cc(NC(=O)c6nccn6C)cn5C)cn4C)cn3C)NC(C)=O)cn2C)cn1C [Compound 112] | > 500 | – |
| CN(CCCC[C@H](NC(=O)[C@H](CCCN1CCOCC1)NC(=O)[C@@H](NC(=O)[C@H](Cc1ccccc1)NC(=O)c1ccc(C(C)(C)C)cc1)C1CCC1)C(=O)N[C@@H](CO)C(=O)NCCOCCOCCOCCOCCOCCNC(=O)CCNC(=O)c1nc(NC(=O)c2cc(NC(=O)CCNC(=O)c3nc(NC(=O)CCCNC(=O)c4cc(NC(=O)c5nc(NC(=O)CCNC(=O)c6cc(NC(=O)c7nccn7C)cn6C)cn5C)cn4C)cn3C)cn2C)cn1C)C1CC2CCC1C2 (some centres unmarked) [Compound 149] | 100 to 500 | – |
| Cn1cc(CCn2c(CNCCOCCOCCNC(=O)CCNC(=O)c3nc(NC(=O)c4cc(NC(=O)CCNC(=O)c5nc(NC(=O)CCCNC(=O)c6cc(NC(=O)c7nc(NC(=O)CCNC(=O)c8cc(NC(=O)c9nccn9C)cn8C)cn7C)cn6C)cn5C)cn4C)cn3C)nc(-c3cnn(C)c3)c2-c2ccc(C#N)cc2)cn1 [Compound 171] | – | > 500 |
| COc1c(OCCOCCOCCOCCOCCOCCNC(=O)CCNC(=O)c2nc(NC(=O)c3cc(NC(=O)CCNC(=O)c4nc(NC(=O)CCCNC(=O)c5cc(NC(=O)c6nc(NC(=O)CCNC(=O)c7cc(NC(=O)c8nccn8C)cn7C)cn6C)cn5C)cn4C)cn3C)cn2C)cccc1C(=O)N1CCN(C(=O)COc2cc(C)cc(C)c2)CC1 [Compound 91] | – | > 500 |
| CCN(CC)CCCC[C@H](NC(=O)[C@H](CC(C)C)NC(=O)[C@H](C)NC(=O)[C@H](Cc1ccccc1)NC(=O)c1ccccc1)C(=O)N[C@@H](CO)C(=O)NCCOCCOCCOCCOCCOCCNC(=O)CCNC(=O)c1nc(NC(=O)c2cc(NC(=O)CCNC(=O)c3nc(NC(=O)CCCNC(=O)c4cc(NC(=O)c5nc(NC(=O)CCNC(=O)c6cc(NC(=O)c7nccn7C)cn6C)cn5C)cn4C)cn3C)cn2C)cn1C [Compound 87] | < 100 | – |
| COc1c(OCCOCCOCCOCCOCCOCCNC(=O)CCNC(=O)c2nc(NC(=O)c3cc(NC(=O)CCNC(=O)c4nc(NC(=O)CCCNC(=O)c5cc(NC(=O)c6nc(NC(=O)CCNC(=O)c7cc(NC(=O)c8nccn8C)cn7C)cn6C)cn5C)cn4C)cn3C)cn2C)cccc1C(=O)N1CCN(C(=O)COc2ccc(NC(N)=O)c(C)c2)CC1 [Compound 95] | – | > 500 |
| CCN(CC)CCCC[C@H](NC(=O)[C@H](CC(C)C)NC(=O)[C@H](C)NC(=O)[C@H](Cc1ccccc1)NC(=O)c1ccc(C(C)(C)C)cc1)C(=O)N[C@@H](CO)C(=O)NCCOCCOCCNC(=O)CCNC(=O)c1nc(NC(=O)c2cc(NC(=O)CCNC(=O)c3[nH]c(NC(=O)CCCNC(=O)c4cc(NC(=O)c5nc(NC(=O)CCNC(=O)c6cc(NC(=O)c7nccn7C)cn6C)cn5C)cn4C)cc3C)cn2C)cn1C [Compound 64] | < 100 | – |
| CC(C)c1cnn2c(NCc3ccc(OCCOCCOCCOCCOCCOCCOCCOCCOCCOCCOCCOCCOCCOCCOCCOCCNC(=O)CCNC(=O)c4nc(NC(=O)c5cc(NC(=O)CCNC(=O)c6nc(NC(=O)CCCNC(=O)c7cc(NC(=O)c8nc(NC(=O)CCNC(=O)c9cc(NC(=O)c%10nccn%10C)cn9C)cn8C)cn7C)cn6C)cn5C)cn4C)cc3-n3cccn3)nc(OC3CCCNC3)nc12 (centres unmarked) [Compound 54] | – | > 500 |
| Cn1cc(NC(=O)c2nc(NC(=O)CCNC(=O)c3cc(NC(=O)c4nccn4C)cn3C)cn2C)cc1C(=O)NCCCC(=O)Nc1cn(C)c(C(=O)NCCC(=O)Nc2cc(C(=O)Nc3cn(C)c(C(=O)NCCC(=O)NCCOCCOCCOCCOCCOCCOCCOCCOCCOCCOCCN4CCC(C(=O)Nc5ncc(SCc6ncc(C(C)(C)C)o6)s5)CC4)n3)n(C)c2)n1 [Compound 17] | – | > 500 |
| CCN(CC)CCCC[C@H](NC(=O)CCCCCCCNC(=O)c1ccc(C(C)(C)C)cc1)C(=O)N[C@@H](CO)C(=O)NCCOCCOCCOCCOCCOCCNC(=O)CCNC(=O)c1nc(NC(=O)c2cc(NC(=O)CCNC(=O)c3nc(NC(=O)CCCNC(=O)c4cc(NC(=O)c5nc(NC(=O)CCNC(=O)c6cc(NC(=O)c7nccn7C)cn6C)cn5C)cn4C)cn3C)cn2C)cn1C [Compound 139] | < 100 | – |
| CCN(CC)CCCC[C@H](NC(=O)[C@H](CC(C)C)NC(=O)[C@H](C)NC(=O)[C@H](Cc1ccccc1)NC(=O)c1ccc(C(C)(C)C)cc1)C(=O)N[C@@H](CO)C(=O)NCCOCCOCCOCCOCCOCCOCCOCCOCCOCCOCCOCCOCCOCCOCCOCCNC(=O)CCNC(=O)c1nc(NC(=O)c2cc(NC(=O)CCNC(=O)c3nc(NC(=O)CCCNC(=O)c4cc(NC(=O)c5nc(NC(=O)CCNC(=O)c6cc(NC(=O)c7nccn7C)cn6C)cn5C)cn4C)cn3C)cn2C)cn1C [Compound 27] | < 100 | – |
| CCN(CC)CCCC[C@H](NC(=O)[C@H](CC(C)C)NC(=O)[C@H](C)NC(=O)[C@H](Cc1ccccc1)NC(=O)c1ccccc1)C(=O)N[C@@H](CO)C(=O)NCCOCCOCCOCCOCCOCCNC(=O)c1cc(NC(=O)c2cc(NC(=O)c3nc(NC(=O)c4cc(NC(=O)[C@@H](N)CCNC(=O)c5nc(NC(=O)CCNC(=O)c6cc(NC(=O)c7nccn7C)cn6C)cn5C)cn4C)cn3C)cn2C)cn1C [Compound 90] | > 500 | – |
| CCN(CC)CCCC[C@H](NC(=O)[C@H](CC(C)C)NC(=O)[C@H](C)NC(=O)[C@H](Cc1ccccc1)NC(=O)c1ccc(C(C)(C)C)cc1)C(=O)N[C@@H](CO)C(=O)Nc1ccc(C#CC#CCNC(=O)CCNC(=O)c2nc(NC(=O)c3cc(NC(=O)CCNC(=O)c4nc(NC(=O)CCCNC(=O)c5cc(NC(=O)c6nc(NC(=O)CCNC(=O)c7cc(NC(=O)c8nccn8C)cn7C)cn6C)cn5C)cn4C)cn3C)cn2C)cc1 [Compound 96] | < 100 | – |
